According to patent publication US10006057B2, “Recombinant yeast having enhanced gamma valerolactone tolerance and methods of use” (Wisconsin Alumni Research Foundation, priority 2014, dated 2018):
“Also recorded” adds a separate entry of the source.

Experiments:
Format in all cases: cell-based, Saccharomyces cerevisiae
yeast [1] = assay: IC50 determination, growth inhibition (strain not stated at the result); settings: FIG. 6B; p<0.001
Procedure: (§1) Compounds tested were purchased from Sigma. Cells of S. cerevisiae (MATα pdr1Δ::natMX pdr3Δ::KI.URA3 snq2Δ::KI.LEU2 can1Δ::STE2pr-Sp_his5 lyp1Δ his3Δ1 leu2Δ0 ura3Δ0 met15Δ0), referred to as control strain, were grown in 200 μl cultures at 30° C. in YPD, with a drug or DMSO control. Plates were read on a TECAN M1000 over a 48 h growth period. The specific growth rate was calculated using GCAT analysis software (available at gcat3-pub.glbrc.org on the world wide web). When presented, IC50 values for growth inhibition were calculated from triplicate 8 point dose curves and SigmaPlot 12.0. When presented, error bars are Mean±Standard error of at least 3 replicates.

yeast [2] = assay: 4-vinylphenol-GVL synergy, growth; settings: FIG. 6C; p<0.01
[3] = tested on: FDC1 deletion mutant in the standard lab strain background; assay: GVL IC50, growth inhibition; settings: single mutant validation; FIG. 4B
Procedure: as §1

[4] = tested on: PAD1 deletion mutant in the standard lab strain background; assay: GVL IC50, growth inhibition; settings: single mutant validation; FIG. 4B
Procedure: as §1

Y133 pad1Δfdc1Δ [5] = assay: IC50 / tolerance, growth inhibition; settings: FIG. 5C; p<0.01
Y133 + pPAD1 = assay: GVL IC50, single mutant cultures; settings: FIG. 4D
Text: We wanted to extend our chemical genomic analysis to industrially an industrially relevant, xylose ferment yeast strain. Presently there are no available genome-wide deletion mutant collections in industrial yeast, so we took a complementary approach. The MoBY-ORF 2.0 plasmid collection is with barcoded versions of 95% of all S. cerevisiae genes each expressed on a 2μ plasmid. This collection of plasmids can be pooled and transformed into any yeast to allow investigations of the effect of gene dose under stress conditions. We transformed a version of the xylose-fermenting yeast GLBRC-Y133 [15] en masse with the pooled plasmid collection and selected over 50K individual transformants (10× genome coverage). We grew this pooled transformant collection in the presence of 2.5% GVL or a water control under anaerobic conditions in glucose/xylose containing media and assessed the effects of increased gene dose on growth in the presence of GVL. We found the Pad1p overexpression mutant was one of the top sensitive strains (p<0.01, FIG. 4C). […]
(§2) Compounds tested were purchased from Sigma. […] Plates were read on a TECAN M1000 over a 48 h growth period. The specific growth rate was calculated using GCAT analysis software (available at gcat3-pub.glbrc.org on the world wide web). When presented, IC50 values for growth inhibition were calculated from triplicate 8 point dose curves and SigmaPlot 12.0. […]

[6] = tested on: deletion mutants of SEC28, VPS38, DID2; assay: Single mutant validation of GVL sensitivity; settings: single mutant cultures; FIG. 2C
Text: Among the top 10 sensitive deletion mutants, we found significant enrichment for genes involved in late endosome to vacuole transport (p<0.01, FIG. 2B), driven by deletion mutants of SEC28, VPS38, DID2. […] Deletion mutants of these 3 genes have increased sensitivity to ethanol, heat, and membrane disrupting agents such as miconazole and nigercin. When we correlated the chemical genomic profile of GVL with the yeast genetic interaction network, we found significant enrichment for genes involved in golgi-vesicle mediated transport among the top 10 correlations (p=0.001). RET2 was consistently predicted as the top correlation for the GVL chemical genomic profile. Ret2p is a subunit of the coatomer complex involved in retrograde transport between Golgi and ER is also involved in golgi transport of vesicles. RET2 mutants similarity show increased sensitivity to heat and membrane disrupting agents.
as §2

[7] = tested on: membrane integrity of yeast cells; assay: Cell leakage assay (dye uptake, flow cytometry); settings: dye uptake after treatment; FIG. 3A, B
Text: To confirm if GVL treatment can rapidly affect cell integrity, we assessed cell permeability after GVL treatment. […] Given that both GVL and ethanol can damage cellular membranes, we also tested if these compounds are synergistic.
A FungaLight™ cell viability assay (Invitrogen L34952) was used to determine if poacic acid caused membrane damage we used using a Guava Flow Cytometer (Millipore, USA). The population of stained cells (damaged integrity) vs non-stained cells can be determined by flow cytometry. Caspofungin (50 ng/ml) was included as a positive control. MMS and DMSO were included as a non-cell wall targeting and solvent control respectively. To test the effects of the compounds on both active and arrested cells, log-phase cultures were washed with 1×PBS and resuspended to an OD of 0.5 in either YPD media or YP (no carbon source) in the presence of the drugs (n=3) for 4 hours at 30° C. The cells were then stained and immediately read by flow cytometry. A one-way ANOVA and Tukey's test was used to calculate the difference between drug treatments among cells with arrested growth.

lab strain = assay: GVL-ethanol synergy, growth; settings: FIG. 3C
Procedure: (§3) To test for synergy, a 6×6 dose matrix was initially used to identify potentially synergistic dose combinations, these points were then confirmed in triplicate. 200 μl cultures were grown with combinations of with poacic acid (125 μg/ml), caspofungin (12.5 ng/ml) and fluconazole (3.8 μg/ml) and the relevant single agent and solvent controls their OD measured after 24 h. Synergy was determined by comparing actual optical density in the presence of compound combinations to an expected value calculated using the multiplicative hypothesis. This assumes that, in the absence of an interaction, each compound would decrease the OD of the cell culture by the same fraction in the presence of the other compound as it does when applied alone, i.e., E=A*B/C, where E is the expected OD, A is OD when compound A is applied alone, B is OD when compound B is applied alone, and C is OD of the control culture (DMSO). In the presence of synergy, the actual OD value is lower than the expected OD. A paired t-test was used to confirm statistical significance of this difference in 3 replicates of the experiment.
(§4) The synergistic interaction between GVL and ethanol was initially discovered using a 6-point dose matrix of the two compounds. We identified the points of the greatest synergy and perform triplicate growth curves of GLBRY-128 using a TECAN M1000 microplate reader. To confirm the GVL-R1 strain was less sensitive to the synergism between GVL and ethanol, used a 6-point dose matrix as described above with both GLBRCY-128 or GVL-R1 in a TECAN microplate reader for 48 hours at 30° C. Data from the most synergistic combination is presented (2% GVL-5% ethanol).

xylose fermenting strain = assay: GVL-ethanol synergy, growth; settings: FIG. 3C
Procedure: as §3, §4

Y133 background strain = assay: Growth and sugar conversion in synthetic hydrolysate with 1% GVL; settings: anaerobic, synthetic hydrolysate containing 1% GVL; FIG. 5D
Procedure: (§5) 6 25-mL anaerobic flasks were prepared with Synthetic hydrolysate (SynH) (6% glucose/3% xylose)+1% GVL, pH 5.0. Flasks were inoculated with rinsed 133 or 133 pad1Δfdc1Δ cells to bring the initial OD to approximately 0.1. The tubes were grown for 72 hours with agitation anaerobically at 30° C. 1 mL samples were taken every 24 hours. Initial and daily samples were measured for OD and submitted for HPLC analysis to quantify sugar consumption and ethanol production.

Y133 pad1Δfdc1Δ [8] = assay: as above; settings: anaerobic, synthetic hydrolysate containing 1% GVL; FIG. 5D
Procedure: as §5

S. cerevisiae = assay: 8 point dose curve for chemical genomic profiling; settings: YP-galactose media, 24 hours of growth
Procedure: Chemical genomic analysis of poacic acid was performed as described as described previously. The tested yeast deletion collection had ˜4000 strains using the genetic background described in Andrusiak (2012). The optimal inhibitory concentration of poacic acid for chemical genomic profiling (70-80% growth versus solvent control in YP-galactose media after 24 hours of growth) was determined using an 8 point dose curve. A concentration of 88 μg/ml inhibited growth within this range. 200 μl cultures of the pooled, deletion collection of S. cerevisiae deletion mutants were grown with 88 μg/ml poacic acid or a DMSO control in triplicate for 48 h at 30° C. Genomic DNA was extracted using the Epicentre MasterPure™ Yeast DNA purification kit. Mutant-specific molecular barcodes were amplified with specially designed multiplex primers. The barcodes were sequenced using an Illumina MiSeq. 3 replicates of each condition (poacic acid vs DMSO) were sequenced. One DMSO control was lost due to poor sequencing reads. The barcode counts for each yeast deletion mutant in the presence of poacic acid were normalized against the DMSO control conditions to define sensitivity or resistance of individual strains. To determine a p-value for each top sensitive and resistant mutant, we used the EdgeR package. […]

With `C=Cc1ccc(O)cc1` [4-vinylphenol] the “IC50 / toxicity of 4-vinylphenol relative to coumaric acid” value (yeast [1]) was “significantly more toxic; also recorded: an order of magnitude lower” and the “synergistic interaction between 4-vinylphenol and GVL” value (yeast [2]) was “significantly synergistic; also recorded: statistically significant synergistic interaction”.

For `CC1CCC(=O)O1` (centres unmarked) [GVL, gamma valerolactone], the “GVL tolerance of deletion mutant” value [3] was “more tolerant; also recorded: improved GVL tolerance”, the “GVL tolerance of deletion mutant” value [4] was “more tolerant; also recorded: improved GVL tolerance” and the “IC50 concentration / tolerance of GVL versus Y133 background” value (Y133 pad1Δfdc1Δ [5]) was “significantly greater; also recorded: significantly higher”. For the same compound, the “GVL tolerance with increased expression of PAD1” value (Y133 + pPAD1) was “significantly reduced GVL tolerance”, the “GVL IC50 / sensitivity compared to the control strain” value [6] was “significantly more sensitive; also recorded: lower IC50” and the “GVL concentration at which loss of membrane integrity is apparent” value [7] was 2.5%. For the same compound, the “synergism between GVL and ethanol” value (lab strain) was “strong synergism”, the “synergistic interaction between GVL and ethanol” value (xylose fermenting strain; 1% GVL and 4% ethanol, p<0.01) was “significantly synergistic; also recorded: significant synergistic interaction” and the “synergism between GVL and ethanol” value (xylose fermenting strain; xylose fermenting strain) was “strong synergism”. For the same compound, the “growth, sugar consumption and ethanol production in presence of GVL” value (Y133 background strain) was “did not” and the “growth, sugar consumption and ethanol production in presence of GVL” value (Y133 pad1Δfdc1Δ [8]) was “faster growth, sugar consumption, and ethanol production; also recorded: grew, consumed sugars, and produced ethanol”.

In the case of poacic acid, the “concentration giving 70-80% growth versus solvent control” value (S. cerevisiae) is reported as 88 µg/mL.
